EP4745138A1, “THIO-GLUTARIMIDO ISOINDOLINONE DERIVATIVE, BIFUNCTIONAL PROTEIN DEGRADER CONTAINING SAME, AND USES THEREOF” (Gluetacs Therapeutics (Shanghai) Co., Ltd., priority 2023, dated 2025)

Target: T1, human Cereblon WT GST-tagged protein (Homo sapiens, UniProt Q96SW2)
T1 construct: purchased CISBIO 64BDCRBNPEH
Assay: CRBN-binding affinity, HTRF (CEREBLON BINDING kit)
Conditions: for inhibition at 0.5 µM: read-out: Inhibition Rate at 0.5 µM (%); for inhibition at 2 µM: read-out: Inhibition Rate at 2 µM (%)
Description: The CEREBLON BINDING kits (specification: 10,000 tests; product number: Catalog # 64BDCRBNPEH; CISBIO company) was used to determine the CRBN binding ability of the compounds to be tested through a HTRF method (homogeneous time-resolved fluorescence). The specific methods are as follows: • 1. […] Specifically, diluent #9 (1X) solution was used as the diluent, and multiple concentration gradients were set. […] Into the 96-well plate, the diluted test compounds and corresponding detection reagents were added, resulting in final test compound concentrations of 2 µM and 0.5 µM, respectively. […] Then, 2.5 µL of human Cereblon WT GST-tagged protein solution was added to each well. Finally, 5 µL of the thoroughly mixed Thalidomide-Re reagent and GST Eu antibody working solution were added to each of the aforementioned wells. […] The blank control wells were sequentially added with 2.5 µL of diluent #9 (1X) solution, 2.5 µL of PROTAC binding buffer, and 5 µL of thoroughly mixed Thalidomide-Re reagent and GST Eu antibody working solution. • 4.

T1 sequence (Q96SW2 whole entry): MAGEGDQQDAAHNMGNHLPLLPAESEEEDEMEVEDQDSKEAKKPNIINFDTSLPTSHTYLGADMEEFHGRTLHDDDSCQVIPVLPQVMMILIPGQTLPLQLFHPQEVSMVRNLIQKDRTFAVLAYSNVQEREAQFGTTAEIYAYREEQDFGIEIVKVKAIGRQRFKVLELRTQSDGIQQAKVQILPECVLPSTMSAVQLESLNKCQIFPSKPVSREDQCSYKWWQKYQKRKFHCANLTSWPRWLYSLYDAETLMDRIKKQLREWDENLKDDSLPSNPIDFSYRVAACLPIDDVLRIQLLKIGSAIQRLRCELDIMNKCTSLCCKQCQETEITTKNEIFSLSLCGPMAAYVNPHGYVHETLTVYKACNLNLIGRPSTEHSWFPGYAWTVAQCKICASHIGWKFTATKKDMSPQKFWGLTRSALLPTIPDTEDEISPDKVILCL

For `N#CC1(CNc2nc(-c3cc(NC4CCN(Cc5ccc6c(c5)C(=S)N(C5CCC(=O)NC5=O)C6)CC4)ncc3Cl)cs2)CCOCC1` (stereo not shown) [GT-08750, 4-(((4-(5-chloro-2-((1-((2-(2,6-dioxopiperidin-3-yl)-3-thioxoisoindolin-5-yl)methyl)piperidin-4-yl)amino)pyridin-4-yl)thiazol-2-yl)amino)methyl)tetrahy dro-2H-pyran-4-carbonitrile], the inhibition at 0.5 µM was 60 to 80% and the inhibition at 2 µM was 80 to 100%.
With `COC1CCN(c2nccc(Nc3cc4c(cn3)c(N3CCN(Cc5cccc6c5CN(C5CCC(=O)NC5=O)C6=S)CC3)nn4C(C)C)n2)CC1` (stereo not shown) [GT-08759, 3-(4-((4-(1-isopropyl-6-((2-(4-methoxypiperidin-1-yl)pyrimidin-4-yl)amino)-1H-pyrazolo[4,3-c]pyridin-3-yl)piperazin-1-yl)methyl)-1-thioxoisoindolin-2-yl)piperidine-2,6-dione] the inhibition at 0.5 µM was 30 to 40% and the inhibition at 2 µM was 60 to 80%.
In the case of `O=C1CCC(N2Cc3cc(CN4CCN(c5ncc(C(=O)Nc6ccc(OC(F)(F)Cl)cc6)cc5-c5cc[nH]n5)CC4)ccc3C2=S)C(=O)N1` (stereo not shown) [GT-08769, N-(4-(chlorodifluoromethoxy)phenyl)-6-(4-((2-(2,6-dioxopiperidin-3-yl)-1-thioxoisoindolin-5-yl)methyl)piperazin-1-yl)-5-(1H-pyrazol-3-yl)nicotinamide], the inhibition at 0.5 µM is reported as 53 to 60% and the inhibition at 2 µM is reported as 80 to 100%.
With `O=C1CCC(N2Cc3c(CN4CCN(c5ncc(C(=O)Nc6ccc(OC(F)(F)Cl)cc6)cc5-c5cc[nH]n5)CC4)cccc3C2=S)C(=O)N1` (stereo not shown) [GT-08775, N-(4-(chlorodifluoromethoxy)phenyl)-6-(4-((2-(2,6-dioxopiperidin-3-yl)-1-thioxoisoindolin-4-yl)methyl)piperazin-1-yl)-5-(1H-pyrazol-3-yl)nicotinamide] the inhibition at 0.5 µM was 30 to 40% and the inhibition at 2 µM was 60 to 80%.
For `Nc1nnc(-c2ccccc2O)cc1N1CCN(Cc2ccc3c(c2)CN(C2CCC(=O)NC2=O)C3=S)CC1` (stereo not shown) [GT-08785, 3-(5-((4-(3-amino-6-(2-hydroxyphenyl)pyridazin-4-yl)piperazin-1-yl)methyl)-1-thioxoisoindolin-2-yl)piperidine-2,6-dione], the inhibition at 0.5 µM was 60 to 80% and the inhibition at 2 µM was 80 to 100%.
`Nc1nnc(-c2cc(F)ccc2O)cc1N1CCN(Cc2cccc3c2CN(C2CCC(=O)NC2=O)C3=S)CC1` (stereo not shown) [GT-08788, 3-(4-((4-(3-amino-6-(5-fluoro-2-hydroxyphenyl)pyridazin-4-yl)piperazin-1-yl)methyl)-1-thioxoisoindolin-2-yl)piperidine-2,6-dione] was tested, and the inhibition at 0.5 µM was 40 to 53% and the inhibition at 2 µM was 80 to 100%.
`Nc1nnc(-c2cc(F)ccc2O)cc1N1CCN(Cc2ccc3c(c2)C(=S)N(C2CCC(=O)NC2=O)C3)CC1` (stereo not shown) [GT-08789, 3-(6-((4-(3-amino-6-(5-fluoro-2-hydroxyphenyl)pyridazin-4-yl)piperazin-1-yl)methyl)-1-thioxoisoindolin-2-yl)piperidine-2,6-dione] gave an inhibition at 0.5 µM of 60 to 80% and an inhibition at 2 µM of 80 to 100%.
In the case of `Nc1nnc(-c2cc(F)ccc2O)cc1N1CC2CCC(C1)N2Cc1cccc2c1CN(C1CCC(=O)NC1=O)C2=S` (stereo not shown) [GT-08790, 3-(4-((3-(3-amino-6-(5-fluoro-2-hydroxyphenyl)pyridazin-4-yl)-3,8-diazabicyclo[3.2.1]octan-8-yl)methyl)-1-thioxoisoindolin-2-yl)piperidine-2,6-dione], the inhibition at 0.5 µM is reported as 60 to 80% and the inhibition at 2 µM is reported as 80 to 100%.
In the case of `Nc1nnc(-c2cc(F)ccc2O)cc1N1CC2CCC(C1)N2Cc1ccc2c(c1)C(=S)N(C1CCC(=O)NC1=O)C2` (stereo not shown) [GT-08791, 3-(6-((3-(3-amino-6-(5-fluoro-2-hydroxyphenyl)pyridazin-4-yl)-3,8-diazabicyclo[3.2.1]octan-8-yl)methyl)-1-thioxoisoindolin-2-yl)piperidine-2,6-dione], the inhibition at 0.5 µM is reported as 40 to 53% and the inhibition at 2 µM is reported as 80 to 100%.
Work on `Cc1cc(S(=O)(=O)N2CCN(Cc3ccc4c(c3)C(=S)N(C3CCC(=O)NC3=O)C4)CC2)ccc1Nc1ncc(Br)c(Nc2cccc(F)c2C(N)=O)n1` (stereo not shown) [GT-08794, 2-((5-bromo-2-((4-((4-((2-(2,6-dioxopiperidin-3-yl)-3-thioxoisoindolin-5-yl)methyl)piperazin-1-yl)sulfonyl)-2-methylphenyl)amino)pyrimidin-4-yl)amino)-6-fluorobenzamide] yielded an inhibition at 0.5 µM of 53 to 60% and an inhibition at 2 µM of 60 to 80%.
`Nc1nc(Nc2ccc(S(=O)(=O)N3CCN(Cc4cccc5c4CN(C4CCC(=O)NC4=O)C5=S)CC3)cc2)nn1C(=O)c1c(F)cccc1F` (stereo not shown) [GT-08795, 3-(4-((4-((4-((5-amino-1-(2,6-difluorobenzoyl)-1H-1,2,4-triazol-3-yl)amino)phenyl)sulfony 1)piperazin-1-yl)methyl)-1-thioxoisoindolin-2-yl)piperidine-2,6-dione] showed an inhibition at 0.5 µM of 53 to 60% and an inhibition at 2 µM of 60 to 80%.
With `Nc1nc(Nc2ccc(S(=O)(=O)N3CCN(Cc4ccc5c(c4)C(=S)N(C4CCC(=O)NC4=O)C5)CC3)cc2)nn1C(=O)c1c(F)cccc1F` (stereo not shown) [GT-08796, 3-(6-((4-((4-((5-amino-1-(2,6-difluorobenzoyl)-1H-1,2,4-triazol-3-yl)amino)phenyl)sulfonyl)piperazin-1-yl)methyl)-1-thioxoisoindolin-2-yl)piperidine-2,6-dione] the inhibition at 0.5 µM was 80 to 100% and the inhibition at 2 µM was 80 to 100%.
With `CCCc1cc(C)[nH]c(=O)c1CNC(=O)c1cc(-c2ccc(N3CCN(Cc4ccc5c(c4)CN(C4CCC(=O)NC4=O)C5=S)CC3)nc2)cc2c1cnn2C(C)C` (stereo not shown) [GT-08885, 6-(6-(4-((2-(2,6-dioxopiperidin-3-yl)-1-thioxoisoindolin-5-yl)methyl)piperazin-1-yl)pyridin-3-yl)-1-isopropyl-N-((6-methyl-2-oxo-4-propyl-1,2-dihydropyridin-3-yl)methyl)-1H-indazole-4-carboxamide] the inhibition at 0.5 µM was 40 to 53% and the inhibition at 2 µM was 60 to 80%.
Work on `CCN(c1cc(-c2ccc(CN3CCN(Cc4ccc5c(c4)CN(C4CCC(=O)NC4=O)C5=S)CC3)cc2)cc(C(=O)NCc2c(C)cc(C)[nH]c2=O)c1C)C1CCOCC1` (stereo not shown) [GT-08886, N-((4,6-dimethyl-2-oxo-1,2-dihydropyridin-3-yl)methyl)-4'-((4-((2-(2,6-dioxopiperidin-3-yl)-1-thioxoisoindolin-5-yl)methyl)piperazin-1-yl)methyl)-5-(ethyl(tetrahydro-2H-pyran-4-yl)amino)-4-methyl-[1,1-biphenyl]-3-carboxamide] yielded an inhibition at 0.5 µM of 53 to 60% and an inhibition at 2 µM of 80 to 100%.
Molecule `CCN(c1cc(-c2ccc(N3CCN(Cc4ccc5c(c4)CN(C4CCC(=O)NC4=O)C5=S)CC3)cc2)cc(C(=O)NCc2c(C)cc(C)[nH]c2=O)c1C)C1CCOCC1` (stereo not shown) [GT-08887, N-((4,6-dimethyl-2-oxo-1,2-dihydropyridin-3-yl)methyl)-4'-(4-((2-(2,6-dioxopiperidin-3-yl)-1-thioxoisoindolin-5-yl)methyl)piperazin-1-yl)-5-(ethyl(tetrahydro-2H-pyran-4-yl)amino)-4-methyl-[1,1-biphenyl]-3-carboxamide] has an inhibition at 0.5 µM of 60 to 80% and an inhibition at 2 µM of 80 to 100%.
For `Cn1c2ccncc2c2ccc(-c3cnc(N4CCN(Cc5ccc6c(c5)CN(C5CCC(=O)NC5=O)C6=S)CC4)c(Cl)c3)cc21` (stereo not shown) [GT-08978, 3-(5-((4-(3-chloro-5-(5-methyl-5H-pyrido[4,3-b]indol-7-yl)pyridin-2-yl)piperazin-1-yl)methyl)-1-thioxoisoindolin-2-yl)piperidine-2,6-dione], the inhibition at 0.5 µM was 60 to 80% and the inhibition at 2 µM was 60 to 80%.
Work on `Cc1cc(-c2ccc3c4cnccc4n(C)c3c2)cnc1N1CCN(Cc2ccc3c(c2)CN(C2CCC(=O)NC2=O)C3=S)CC1` (stereo not shown) [GT-08980, 3-(5-((4-(3-methyl-5-(5-methyl-5H-pyrido[4,3-b]indol-7-yl)pyridin-2-yl)piperazin-1-yl)methyl)-1-thioxoisoindolin-2-yl)piperidine-2,6-dione] yielded an inhibition at 0.5 µM of 40 to 53% and an inhibition at 2 µM of 60 to 80%.
Work on `Cn1c2ccncc2c2ccc(-c3ccc(N4CCN(Cc5ccc6c(c5)CN(C5CCC(=O)NC5=O)C6=S)CC4)nc3)cc21` (stereo not shown) [GT-08982, 3-(5-((4-(5-(5-methyl-5H-pyrido[4,3-b]indol-7-yl)pyridin-2-yl)piperazin-1-yl)methyl)-1-thioxoisoindolin-2-yl)piperidine-2,6-dione] yielded an inhibition at 0.5 µM of 60 to 80% and an inhibition at 2 µM of 80 to 100%.
For `COc1ccc2cn(C3CCN(Cc4ccc5c(c4)CN(C4CCC(=O)NC4=O)C5=S)CC3)nc2c1NC(=O)c1cccc(C(F)(F)F)c1` (stereo not shown) [GT-09413, N-(2-(1-((2-(2,6-dioxopiperidin-3-yl)-1-thioxoisoindolin-5-yl)methyl)piperidin-4-yl)-6-methoxy-2H-indazol-7-yl)-3-(trifluoromethyl)benzamide], the inhibition at 0.5 µM was 60 to 80% and the inhibition at 2 µM was 100 to 110%.
`COc1cc2nn(C3CCN(Cc4cccc5c4CN(C4CCC(=O)NC4=O)C5=S)CC3)cc2cc1NC(=O)c1cccc(C(F)(F)F)c1` (stereo not shown) [GT-09414, N-(2-(1-((2-(2,6-dioxopiperidin-3-yl)-1-thioxoisoindolin-4-yl)methyl)piperidin-4-yl)-6-methoxy-2H-indazol-5-yl)-3-(trifluoromethyl)benzamide] was tested, and the inhibition at 0.5 µM was 20 to 30% and the inhibition at 2 µM was 60 to 80%.
